The target in test [1] is [3H]Dopamine reuptake in rat brain tissue. Description: in vitro [3H]dopamine reuptake inhibition in rat brain tissue. The test is classed as biochemical. The conditions noted are these: means of ≧3 separate determinations.
The target in test [2] is [3H]Noradenaline reuptake in rat brain tissue. Description: in vitro [3H]noradrenaline reuptake inhibition in rat brain tissue. The test is classed as biochemical. The settings on record: means of ≧3 separate determinations.

For the molecule `CC(NC(C)(C)C)C(=O)c1cccc(Cl)c1` (stereo not shown) [Bupropion], the Ki (in general, the dissociation constant of the complex between target and ligand, obtained from inhibition or displacement) in test [1] came to 409 nM; in test [2], 2590 nM.

For `COc1ccc(C(CN(C)C)C2(O)CCCCC2)cc1` (stereo not shown) [Venlafaxine], the Ki in test [1] came to 2590 nM; in test [2], 196 nM.

The values are drawn from US6365633B1, “Method of treating eating disorders” (Knoll Pharmaceutical Company, priority 1999, dated 2002).
